The source of these data is PubChem BioAssay AID504478 (NMMLSC, 2011).

pIC50: −log10 of the molar value.

As usually defined, the pIC50 is −log10 of the IC50, conventionally taken in molar units.

The target of the assay is Serine/threonine-protein kinase SCH9 (Saccharomyces cerevisiae (strain ATCC 204508 / S288c)) (UniProt P11792). The experiment in a line: reduction of phospho-Sch9 levels in yeast cells – cell-based, HA-Sch9, immunoblot, mechanism study for yeast TOR pathway modulator project, SAR follow-up (AID 504478). To be noted: S. cerevisiae HA-Sch9, T570 phospho immunoblot, 30 min.
Serine/threonine-protein kinase SCH9 (Saccharomyces cerevisiae (strain ATCC 204508 / S288c)), sequence (P11792 whole entry, looked up): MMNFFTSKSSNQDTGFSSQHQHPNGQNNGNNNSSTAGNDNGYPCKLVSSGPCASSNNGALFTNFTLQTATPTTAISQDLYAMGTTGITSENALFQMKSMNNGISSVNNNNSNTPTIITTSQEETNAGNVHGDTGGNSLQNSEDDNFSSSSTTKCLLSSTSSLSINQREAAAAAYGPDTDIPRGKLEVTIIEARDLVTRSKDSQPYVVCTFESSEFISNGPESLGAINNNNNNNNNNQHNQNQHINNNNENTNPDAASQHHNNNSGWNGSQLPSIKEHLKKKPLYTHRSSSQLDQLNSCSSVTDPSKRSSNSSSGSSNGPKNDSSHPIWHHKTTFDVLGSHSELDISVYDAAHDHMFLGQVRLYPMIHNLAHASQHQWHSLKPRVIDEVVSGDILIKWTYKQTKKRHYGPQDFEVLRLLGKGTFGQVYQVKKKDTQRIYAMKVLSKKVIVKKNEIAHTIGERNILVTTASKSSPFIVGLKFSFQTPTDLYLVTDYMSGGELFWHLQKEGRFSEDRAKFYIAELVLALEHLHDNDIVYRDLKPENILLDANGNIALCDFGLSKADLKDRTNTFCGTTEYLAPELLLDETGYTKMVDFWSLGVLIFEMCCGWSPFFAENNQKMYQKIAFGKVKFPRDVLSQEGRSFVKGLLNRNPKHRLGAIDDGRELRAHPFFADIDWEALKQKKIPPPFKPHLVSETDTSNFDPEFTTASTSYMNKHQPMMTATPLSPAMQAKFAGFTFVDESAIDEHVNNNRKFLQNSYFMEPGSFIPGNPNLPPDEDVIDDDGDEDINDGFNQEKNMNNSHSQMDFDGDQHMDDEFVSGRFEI

With `CNc1nc(N)c([N+](=O)[O-])c(Nc2cccc(F)c2)n1`, the pIC50 was 5.35.
